# Tests used:
# Type in all cases: in vivo
# BALB/c mice [1] = experiment: Asthma-associated inflammation: OVA aerosol exposure and bronchioalveolar lavage
# Procedure: Four-week old male, viral-antibody-free BALB/c mice (Jackson Laboratory, Bar Harbor, Me.) were intraperitoneally immunized with 10 μg ovalbumin (“OVA,” Grade III, Sigma Chemical Co., St. Louis, Mo.) and 1 mg alum (diluted from 2% Alhydrogel; Accurate Sci. Corp., Westbury, N.Y.) in 0.5 mL phosphate-buffered saline (“PBS”) on days 0 and 7. Control mice received 1 mg alum in PBS solution on days 0 and 7.
# On day 14, both immunized mice and control mice received a single aerosol exposure to 3% OVA (in PBS) for 30 minutes, followed by intraperitoneal administration of Compound 34 (5 μg per mouse in 0.2 mL buffer solution). About 18 hours after treatment, the mice were sacrificed and bronchioalveolar lavage (“BAL”) was performed on their lungs. The fluid obtained from the mice via the BAL procedure was analyzed and the inflammatory cell counts and level of inflammatory mediators in the fluid samples was measured as described in Virag et al., Med. Sci. Monit. 10:BR77-83 (2004).
# On day 14, both immunized mice and control mice received a single aerosol exposure to 3% OVA (in PBS) for 30 minutes, followed by intraperitoneal administration of Compound 24 (5 μg per mouse in 0.2 mL buffer solution). About 18 hours after treatment, the mice were sacrificed and bronchioalveolar lavage (“BAL”) was performed on their lungs. The fluid obtained from the mice via the BAL procedure was analyzed and the inflammatory cell counts and level of inflammatory mediators in the fluid samples was measured as described in Virag et al., Med. Sci. Monit. 10:BR77-83 (2004).
# BALB/c mice [2] = experiment: LPS-induced chemokine and cytokine response (serum TNF-α, MIP-1α by ELISA); conditions: for Serum TNF-α mean / Serum MIP-1α mean: serum ninety minutes after LPS
# Procedure: (§1) Male BALB/c mice were intraperitoneally administered Compound 54 (at a dose of either 0.3 mg/kg or 1.0 mg/kg) over a 30-minute period. Lipopolysaccharide (LPS) was then administered intraperitoneally at a dose of 1 mg/kg. Ninety minutes after LPS administration, serum was collected and the levels of MIP-1α and TNF-α were analyzed using specific ELISA.
# as §1, with “34” for “54”, “0.03” for “either 0.3”, “0.1” for “1.0”, “30 minute” for “30-minute”
# mice = experiment: TPA-induced dermatitis of the ear (ear weight, MPO); conditions: for Right ear (treated) Mean Weight: 10 μL topical, biopsy six hours after application, normal saline 20.2; for Right ear (treated) MPO: ear biopsy six hours after application, normal saline 18.4; for Difference (right minus left ear weight): normal saline 10.1; for Difference (MPO right minus left ear): normal saline 16.8; for Left ear (untreated) MPO / Left ear (untreated) Mean Weight: left ear DMSO vehicle only
# Procedure: Dermatitis was induced in the right ear of unanesthetized mice via the topical application of 12-O-tetradecanoylphorbol-13-acetate (TPA) (10 μL, 1% in DMSO) on both the inner and outer surfaces of the right ear. The left ear of each mouse had only vehicle (DMSO, 10 μL) topically applied on both the inner and outer surfaces.
# Immediately after application of TPA, the mice were topically treated on the inner and outer surfaces of their right ear only with either: (1) Compound 43 (10 μL, 0.1% in normal saline), (2) Compound 43 (10 μL, 0.3% in normal saline), or (3) normal saline (10 μL).
# Six hours after the application of Compound 43 or normal saline, the animals were euthanized using CO2 asphyxiation and a ¼ inch biopsy of both the left and right ear was taken and weighed. The biopsy samples were then analyzed for myloperoxidase (MPO) activity as a marker of neutrophil infiltration using standard methods.
# Swiss Webster mice = experiment: Dextran sodium sulfate-induced colitis; conditions: for visual score (1-4) of colon damage: 1 = no damage, 4 = extensive damage, vehicle 2; for Colon Length: twice daily by gavage, seven days with DSS, vehicle 3.97; for MDA / MPO: colon biopsy; for MDA: vehicle 8.7; for MPO: vehicle 209
# Procedure: Colitis was induced in Swiss Webster mice by administration of dextran sodium sulfate (DSS) (5%, dissolved in distilled water, molecular weight 30-40 kDa) ad libitum for a total period of seven days. During this seven-day period, and concomitant with the administration of DSS, the mice were separately administered Compound 54 twice daily by gavage at a total daily dose of 0.1 mg/kg/day, 0.3 mg/kg/day or 1 mg/kg/day. At the end of the seventh day of administration of both DSS and Compound 54, the mice were euthanized and their colon was removed, measured, visually analyzed and colon biopsy samples were analyzed for malondialdehyde (MDA) and myeloperoxidase (MPO) levels.
# [3] = 5 μg per mouse i.p., BAL fluid about 18 hours after treatment
# [4] = animals given 0.1% on the right ear
# [5] = animals given 0.3% on the right ear
smiles,measurement,setting,value
CCNC(=O)[C@H]1O[C@@H](n2cnc3c(N)nc(N/N=C/C4CCC=CO4)nc32)[C@H](O)[C@@H]1O (mixture of isomers) [Compound 34],"inflammatory cell infiltration into the BAL fluid, reduction","BALB/c mice [1]; 5 μg per mouse i.p. after OVA aerosol, BAL about 18 hours after treatment, treated vs. control animals, p<0.01",70±19%
same,"MIP-1α levels, reduction relative to control",BALB/c mice [1]; [3],74%
same,"TNF-α levels, reduction relative to control",BALB/c mice [1]; [3],30%
same,"white blood cell counts, reduction relative to control",BALB/c mice [1]; [3],70%
same,MIP-1α,"BALB/c mice [1]; BAL fluid, 5 μg per mouse i.p., untreated mice 58 ± 19",15 ± 5 pg/mL
same,TNF-α,"BALB/c mice [1]; BAL fluid, 5 μg per mouse i.p., untreated mice 81 ± 27",56 ± 18 pg/mL
same,Serum TNF-α mean,"BALB/c mice [2]; 0.03 mg/kg i.p. before LPS 1 mg/kg i.p., LPS alone 1949",814 pg/mL
same,Serum MIP-1α mean,"BALB/c mice [2]; 0.03 mg/kg i.p. before LPS 1 mg/kg i.p., LPS alone 2544",1182 pg/mL
same,LPS-induced increase in TNF-α and MIP-1α,BALB/c mice [2]; 0.03 mg/kg or 0.1 mg/kg i.p.,dose-dependently reduces
same,Serum TNF-α mean,"BALB/c mice [2]; 0.1 mg/kg i.p. before LPS 1 mg/kg i.p., LPS alone 1949",552 pg/mL
same,Serum MIP-1α mean,"BALB/c mice [2]; 0.1 mg/kg i.p. before LPS 1 mg/kg i.p., LPS alone 2544",981 pg/mL
CCNC(=O)[C@H]1O[C@@H](n2cnc3c(N)nc(N/N=C/[C@H]4CCC=CO4)nc32)[C@H](O)[C@@H]1O [Compound 43],MPO levels in the treated right ears,"mice; 0.1% and 0.3% topical, compared to TPA and normal saline",decreased
same,elevated weight in the right ear caused by the TPA-induced dermatitis,"mice; 0.1% and 0.3% topical, compared to animals receiving normal saline only",reduced in a dose-dependent fashion
same,Right ear (treated) Mean Weight,mice; 0.1% in normal saline,17.7 mg
same,Right ear (treated) MPO,mice; 0.1% topical,1.04 ug/sample
same,Difference (right minus left ear weight),mice; 0.1% topical,5.3 mg
same,Difference (MPO right minus left ear),mice; 0.1% topical,0.67
same,Right ear (treated) Mean Weight,mice; 0.3% in normal saline,13.6 mg
same,Right ear (treated) MPO,mice; 0.3% topical,3.34 ug/sample
same,Difference (right minus left ear weight),mice; 0.3% topical,0.1 mg
same,Difference (MPO right minus left ear),mice; 0.3% topical,1.65
same,Left ear (untreated) MPO,mice; [4],0.37 ug/sample
same,Left ear (untreated) Mean Weight,mice; [4],12.4 mg
same,Left ear (untreated) MPO,mice; [5],1.69 ug/sample
same,Left ear (untreated) Mean Weight,mice; [5],13.5 mg
CNC(=O)[C@H]1O[C@@H](n2cnc3c(NC)nc(C#N)nc32)[C@H](O)[C@@H]1O [Compound 54],colon shortening,"Swiss Webster mice; 0.1, 0.3 or 1 mg/kg/day, compared to animals treated with vehicle",protected against colon shortening
same,levels of MDA and MPO,"Swiss Webster mice; 0.1, 0.3 or 1 mg/kg/day, dose-dependent, compared to animals treated with vehicle",lowered
same,visual score (1-4) of colon damage,Swiss Webster mice; Dose 0.1 mg/ml,1.5
same,Colon Length,Swiss Webster mice; Dose 0.1 mg/ml,4.95 cm
same,visual score (1-4) of colon damage,Swiss Webster mice; Dose 0.3 mg/ml,1.2
same,Colon Length,Swiss Webster mice; Dose 0.3 mg/ml,5.51 cm
same,visual score (1-4) of colon damage,Swiss Webster mice; Dose 1 mg/ml,1.4
same,Colon Length,Swiss Webster mice; Dose 1 mg/ml,5.87 cm
same,MDA,Swiss Webster mice; Dose 0.1 mg/ml,7.4 nmol/mg protein
same,MPO,Swiss Webster mice; Dose 0.1 mg/ml,345 mμ/mg protein
same,MDA,Swiss Webster mice; Dose 0.3 mg/ml,7.4 nmol/mg protein
same,MPO,Swiss Webster mice; Dose 0.3 mg/ml,138 mμ/mg protein
same,MDA,Swiss Webster mice; Dose 1 mg/ml,4.4 nmol/mg protein
same,MPO,Swiss Webster mice; Dose 1 mg/ml,30 mμ/mg protein
same,Serum MIP-1α mean,"BALB/c mice [2]; 0.3 mg/kg i.p. before LPS 1 mg/kg i.p., LPS alone 4150",4298 pg/mL
same,Serum TNF-α mean,"BALB/c mice [2]; 0.3 mg/kg i.p. before LPS 1 mg/kg i.p., LPS alone 9741",5733 pg/mL
same,LPS-induced increase in TNF-α and MIP-1α,BALB/c mice [2]; 0.3 mg/kg or 1.0 mg/kg i.p.,dose-dependently reduces
same,Serum MIP-1α mean,"BALB/c mice [2]; 1.0 mg/kg i.p. before LPS 1 mg/kg i.p., LPS alone 4150",3906 pg/mL
same,Serum TNF-α mean,"BALB/c mice [2]; 1.0 mg/kg i.p. before LPS 1 mg/kg i.p., LPS alone 9741",3727 pg/mL

# From patent US8133880B2, “Purine derivatives and methods of use thereof” (Inotek Pharmaceuticals Corporation, priority 2004, dated 2012)
